Experimental data reported in BindingDB's records for patent US20260001888 (Merck Sharp & Dohme, 2026).

target: High affinity cGMP-specific 3',5'-cyclic phosphodiesterase 9A (Homo sapiens, UniProt O76083); assay: PDE9 Inhibitory Activity Assay
Method: Human PDE9 (PDE9A2, GenBank Accession No. NM_001001567), full length with N-terminal GST tag, was purchased from BPS Bioscience. The fluorescence polarization assay for cyclic nucleotide phosphodiesterases was performed using an IMAP FP kit supplied by Molecular Devices, Sunnyvale, CA (product #R8139). IMAP technology has been applied previously to phosphodiesterase assays (Huang, W., et al., J. Biomol Screen, 2002, 7:215). Assays were performed at room temperature in 384-well microtiter plates with an incubation volume of 20.2 μL. Solutions of test compounds were prepared in DMSO and serially diluted with DMSO to yield 8 μL of each of 10 solutions differing by 3-fold in concentration, at 32 serial dilutions per plate. 100% inhibition is determined using a known PDE9 inhibitor, such as 1-(2-chlorophenyl)-6-[(2R)-3,3,3-trifluoro-2-methylpropyl]-1,5-dihydro-4H-pyrazolo[3,4-d]pyrimidine-4-one (BAY 73-6691) (Wunder et al, Mol. Pharmacol., 2005, 68 (6): 1775-81), (6-[(3S,4S)-4-methyl-1-(pyrimidin-2-ylmethyl) pyrrolidin-3-yl]-1-(tetrahydro-2H-pyran-4-yl)-1,5-dihydro-4H-pyrazolo[3,4-d]pyrimidin-4-one (PF-04447943) (Wager et al., ACS Chemical Neuroscience, 2010, 1:435-449). 0% of inhibition is determined by using DMSO (1% final concentrations). A Labcyte Echo 555 (Labcyte, Sunnyvale, CA) is used to dispense 200 nL from each well of the titration plate to the 384 well assay plate. Human PDE9A2 membrane preps were diluted to 1 ng/ml. […] PDE9 enzyme mix and compounds were mixed and incubated at room temperature for 30 min. Following which, FAMcGMP substrate was added, shaken and incubated for an additional 60 min at room temperature. The final concentration of human PDE9 membrane preparations were 0.5 ng/ml. The final concentration of FAM-cGMP was 50 nM. After the incubation period, the enzymatic reaction was stopped by addition of binding solution (IMAP-FP, Molecular Devices, comprised of 80% Solution A, 20% Solution B and a 1:600 dilution of binding reagent) to each well. The plates were shaken then incubated at room temperature for 1 h prior to determining the fluorescence polarization (mP) using a Perkin Elmer En Vision™ plate reader (Waltham, MA).

High affinity cGMP-specific 3',5'-cyclic phosphodiesterase 9A, sequence (O76083 whole entry): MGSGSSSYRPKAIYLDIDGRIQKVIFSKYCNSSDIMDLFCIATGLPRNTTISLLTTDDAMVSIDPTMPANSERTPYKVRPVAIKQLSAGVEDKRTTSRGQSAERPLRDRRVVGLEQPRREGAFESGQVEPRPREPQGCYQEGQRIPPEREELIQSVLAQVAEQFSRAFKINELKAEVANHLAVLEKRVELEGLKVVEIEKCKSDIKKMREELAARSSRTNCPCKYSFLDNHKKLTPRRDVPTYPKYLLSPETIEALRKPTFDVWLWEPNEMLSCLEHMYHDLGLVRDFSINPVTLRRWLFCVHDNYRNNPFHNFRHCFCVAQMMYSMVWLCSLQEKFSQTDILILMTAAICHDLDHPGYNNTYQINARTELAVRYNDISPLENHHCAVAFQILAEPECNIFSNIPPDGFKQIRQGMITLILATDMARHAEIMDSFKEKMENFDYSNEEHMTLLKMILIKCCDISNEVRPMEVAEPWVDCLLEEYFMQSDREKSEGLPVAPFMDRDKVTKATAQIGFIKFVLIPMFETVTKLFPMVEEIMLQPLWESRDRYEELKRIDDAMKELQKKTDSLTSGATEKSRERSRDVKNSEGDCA

| Structure (SMILES) | Ki [nM] |
| --- | --- |
| CCC(c1ncc(OC(F)(F)F)cn1)N(C)c1nc2c(c(C#N)nn2C(C)c2ccc(C(F)(F)F)nc2)c(=O)[nH]1 (single isomer, unassigned; form 1) [US20260001888, Example 59] | 12.1 |
| CCC(c1ncc(OC(F)(F)F)cn1)N(C)c1nc2c(c(C#N)nn2C(C)c2ccc(C(F)(F)F)nc2)c(=O)[nH]1 (single isomer, unassigned; form 2) [US20260001888, Example 60] | 1.06 |
| CCC(c1ncc(OC(F)(F)F)cn1)N(C)c1nc2c(c(C#N)nn2C(C)c2ccc(C(F)(F)F)nc2)c(=O)[nH]1 (single isomer, unassigned; form 3) [US20260001888, Example 61] | 0.17 |
| CCC(c1ncc(OC(F)(F)F)cn1)N(C)c1nc2c(c(C#N)nn2C(C)c2ccc(C(F)(F)F)nc2)c(=O)[nH]1 (single isomer, unassigned; form 4) [US20260001888, Example 62] | 50.7 |
